Assay results taken from publication PMC2981824 (Bioorganic & medicinal chemistry, 2010).
≈ marks a conversion by molar mass, not a printed value. Where “and” joins values, the source holds several entries; their conditions need not be identical. Equal entries are not always repeated.

Columns and labels:
PfFabG = PfFabG (Plasmodium falciparum, UniProt Q8I2S7); assay: biochemical; assay type: biochemical
P. falciparum K1 strain = assay type: cell-based; conditions: Plasmodium falciparum, K1, read-out: IC50 P. falciparum BS
L6 cells = assay: Cytotoxicity against L6 cells; assay type: cell-based, rat; conditions: highest test concentration 90 μg/ml
LS development = conditions: cited from earlier work
PfFabI = molecular target: T1, PfFabI (Plasmodium falciparum, UniProt Q9BH77); assay: biochemical; assay type: biochemical; conditions: for Ki: Ki PfFabI
T1 sequence (Q9BH77 22-432): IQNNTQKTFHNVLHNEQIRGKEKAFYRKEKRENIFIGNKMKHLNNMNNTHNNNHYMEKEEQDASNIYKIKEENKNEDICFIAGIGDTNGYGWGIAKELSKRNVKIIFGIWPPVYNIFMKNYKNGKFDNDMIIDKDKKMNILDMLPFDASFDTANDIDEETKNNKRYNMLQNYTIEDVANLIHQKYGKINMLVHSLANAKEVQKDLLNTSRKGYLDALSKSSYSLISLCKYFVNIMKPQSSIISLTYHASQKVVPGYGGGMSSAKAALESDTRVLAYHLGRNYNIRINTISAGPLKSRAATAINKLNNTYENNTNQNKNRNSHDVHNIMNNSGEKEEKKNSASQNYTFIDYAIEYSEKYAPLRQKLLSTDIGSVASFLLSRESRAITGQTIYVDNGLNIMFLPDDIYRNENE

[1] = system: late liver phases of P. berghei; conditions: cited from earlier work
[2] = system: L. donovani strain MHOM/ET/67/L82; assay: Leishmanicidal activity, axenic amastigotes; assay type: cell-based; conditions: Leishmania donovani, 72 h, read-out: IC50 Leishmania donovani
PfFabZ = molecular target: T2, PfFabZ (Plasmodium falciparum, UniProt Q965D7); assay: biochemical; assay type: biochemical
T2 sequence (Q965D7 19-230): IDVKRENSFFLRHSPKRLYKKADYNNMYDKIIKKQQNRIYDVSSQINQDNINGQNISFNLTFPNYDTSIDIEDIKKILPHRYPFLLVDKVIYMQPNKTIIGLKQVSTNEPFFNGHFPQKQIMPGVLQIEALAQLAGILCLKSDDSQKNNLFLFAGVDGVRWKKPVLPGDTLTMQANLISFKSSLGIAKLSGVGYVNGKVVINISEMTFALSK

[3] = system: P. yoelii liver stages (PyGFP sporozoites); assay: Liver stage growth inhibition, flow cytometric; assay type: cell-based; conditions: Plasmodium yoelii, 43 h, read-out: IC50 P. yoelii LS FC
HepG2:CD81 cells = assay: Toxicity to hepatoma cells; assay type: cell-based; conditions: FC (7-AAD) or IFA (DAPI)
[4] = Cytotoxicity against L6 cells; assay type: cell-based, rat; conditions: rat
[5] = molecular target: mycobacterial InhA (MtFabI) enzyme; conditions: read-out: Ki InhA (MtFabI); competitive inhibition; cited from earlier work
P. yoelii liver stages = assay: Liver stage growth inhibition, immunofluorescence analysis; assay type: cell-based; conditions: Plasmodium yoelii, 43 h, read-out: IC50 P. yoelii LS IFA

## CCCCCCCCCC#CCCCCC(=O)O [6-HDA, 6-Hexadecynoic acid]
PfFabG
  IC50: > 396 µM

## CCCCCCC#CCCCCCCCC(=O)O [9-HDA, 9-Hexadecynoic acid]
P. falciparum K1 strain
  IC50: 10.3 µg/mL (≈ 40.8 µM)
PfFabG
  IC50: > 396 µM

## CCCCCCCCCCC#CCCCC(=O)O [5-HDA, 5-Hexadecynoic acid]
L6 cells
  Toxicity against L6 cells (in words): completely non-toxic
PfFabG
  IC50: > 396 µM

## Oc1c(Cl)cc(Cl)c(Cl)c1Cc1c(O)c(Cl)cc(Cl)c1Cl [hexachlorophene]
LS development
  IC50 LS development in vitro: 1.95 µg/mL (≈ 4.79 µM)
LS development; read-out: IC50 LS development in vitro
  IC50: 4.8 µM

## CCCCCCCCCCCCCCCC(=O)O [PA, Palmitic acid, reference compound]
PfFabI
  IC50: > 390000 nM
PfFabG
  IC50: > 390 µM

## Oc1cc(Cl)ccc1Oc1ccc(Cl)cc1Cl [triclosan]
[1]
  IC50 late liver phases of P. berghei: 11.4 µg/mL
[1]; read-out: IC50 late liver phases of P. berghei
  IC50: 39.4 µM

## CCCCCCCCCCCCCC#CC(=O)O [2-HDA, 2-Hexadecynoic acid]
[2]
  IC50: 4.5 µg/mL (≈ 17.8 µM)
PfFabI
  IC50: 1510 nM
PfFabI; cofactor (NADH) varied
  Ki: 2580 nM
PfFabI; substrate (crotonyl-CoA) varied
  Ki: 2890 nM and 2900 nM
PfFabI; with respect to crotonyl-CoA and the cofactor NADH
  Inhibition type PfFabI: non-competitive
PfFabZ
  IC50: 2300 nM
PfFabZ; with respect to the substrate
  Inhibition type PfFabZ: competitive
[3]
  IC50: 15.3 µg/mL (≈ 60.6 µM)
HepG2:CD81 cells
  Toxicity against HepG2:CD81 hepatoma cells (in words): non-toxic
[4]
  IC50 at 72 h: 85.9 µg/mL (≈ 340 µM)
P. falciparum K1 strain
  IC50: 10.4 µg/mL (≈ 41.2 µM)
PfFabG
  IC50: 13.9 µM
PfFabG; Ki PfFabG, cofactor NADPH varied
  Ki: 6 µM
PfFabG; cofactor NADPH varied
  Inhibition type PfFabG: non-competitive
PfFabG; substrate acetoacetyl-CoA varied
  Inhibition type PfFabG: competitive
[5]
  Ki: 2100 ± 600 nM
P. yoelii liver stages
  IC50: 4.88 µg/mL (≈ 19.3 µM)
